Cn1cc[n+](CCCC[n+]2ccn(C)c2)c1.F[P-](F)(F)(F)(F)F.F[P-](F)(F)(F)(F)F
Details	solubility (mole fraction)
in 2-butanone, 283.15 K	0.00838
in 2-butanone, 288.15 K	0.00936
in 2-butanone, 294.15 K	0.0114
in 2-butanone, 299.15 K	0.014
in 2-butanone, 304.15 K	0.0178
in 2-butanone, 309.15 K	0.0235
in 2-butanone, 315.15 K	0.0349
in 2-butanone, 320.15 K	0.0496
in 2-butanone, 325.15 K	0.0728
in acetophenone, 299.65 K	0.00127
in acetophenone, 303.65 K	0.00198
in acetophenone, 307.35 K	0.00285
in acetophenone, 313.15 K	0.00472
in acetophenone, 318.15 K	0.00677
in acetophenone, 323.15 K	0.00919
in acetophenone, 328.15 K	0.0117
in acetophenone, 332.15 K	0.0137
in acetylacetone, 283.15 K	0.00252
in acetylacetone, 288.15 K	0.0026
in acetylacetone, 293.15 K	0.00295
in acetylacetone, 297.45 K	0.00352
in acetylacetone, 302.65 K	0.00473
in acetylacetone, 309.15 K	0.00768
in acetylacetone, 314.15 K	0.0121
in acetylacetone, 320.15 K	0.0227
in acetylacetone, 325.15 K	0.0409
in acetylacetone, 330.15 K	0.0784
in cyclohexanone, 283.15 K	0.000563
in cyclohexanone, 288.15 K	0.0009
in cyclohexanone, 293.15 K	0.00138
in cyclohexanone, 298.35 K	0.00206
in cyclohexanone, 302.15 K	0.00271
in cyclohexanone, 308.65 K	0.0041
in cyclohexanone, 313.15 K	0.00529
in cyclohexanone, 318.25 K	0.00688
in cyclohexanone, 323.15 K	0.00857
in cyclohexanone, 328.15 K	0.0105
in cyclohexanone, 333.15 K	0.0124
in water, 283.15 K	9.5e-05
in water, 288.45 K	0.000124
in water, 293.15 K	0.000156
in water, 298.15 K	0.000203
in water, 303.65 K	0.000274
in water, 308.15 K	0.000348
in water, 313.15 K	0.000456
in water, 318.35 K	0.000608
in water, 323.15 K	0.00079
in water, 328.15 K	0.00105
in water, 333.15 K	0.00138

— BigSolDB 2.1
